Earlier results on one compound are cited in patent publication US20220265671A1, “METHOD FOR TREATING STROKE BY USING TRICYCLIC DERIVATIVE” (Jeil Pharmaceutical Co., Ltd., priority 2019, published 2022).

For this series, the system named is tMCAO animal model. The following applies: Molecular Neurobiology 55(9859), January 2018; cited from earlier work.

As for `CCOc1cc(CN2CCOCC2)cc2[nH]c(=O)c3c(c12)NCCC3` [10-ethoxy-8-(morpholinomethyl)-1,2,3,4-tetrahydrobenzo[h][1,6]naphthyridin-5(6H)-one], the “reducing cerebral infarction volume” value is “effective in reducing cerebral infarction volume”.
